Reference: paper PMC13120037 (2026)

How the values were obtained:
[1] = tested on: Seq78-7 (DNA, aptamer) GGGAGCTCAGAATAAACGCTCAAGTTCCTCTATTCTAGTTATGCGCTACGTACGCTAGTTCGACATGAGGCCCGGATC; experiment: magnetic-bead strand release, supernatant absorbance (Nanodrop); conditions: 25 °C, 60 min; 20 μM α-amanitin; capture strand Capture-am-biotin displaced; Langmuir single-point calculation, not fitted
[2] = tested on: Seq78-7 (DNA, aptamer) GGGAGCTCAGAATAAACGCTCAAGTTCCTCTATTCTAGTTATGCGCTACGTACGCTAGTTCGACATGAGGCCCGGATC; experiment: AuNP colorimetric assay (A520); conditions: Na+ (NaCl 40 mM final, added after binding); room temperature, 30 min; 1 μg/mL α-amanitin, aptamer 0-1600 nM; 35 or 78 nt form not stated
[3] = tested on: Seq78-4 (DNA, aptamer) GGGAGCTCAGAATAAACGCTCAATTTTCGCTGGCTAGTCAGTTTTCTCGTCGTGTGATTTCGACATGAGGCCCGGATC; experiment: magnetic-bead strand release, supernatant absorbance (Nanodrop); conditions: 25 °C, 60 min; 20 μM α-amanitin; capture strand Capture-am-biotin displaced; Langmuir single-point calculation, not fitted
[4] = tested on: Seq78-4 (DNA, aptamer) GGGAGCTCAGAATAAACGCTCAATTTTCGCTGGCTAGTCAGTTTTCTCGTCGTGTGATTTCGACATGAGGCCCGGATC; experiment: AuNP colorimetric assay (A520); conditions: Na+ (NaCl 40 mM final, added after binding); room temperature, 30 min; 1 μg/mL α-amanitin, aptamer 0-1600 nM; 35 or 78 nt form not stated
[5] = tested on: Seq78-2 (DNA, aptamer) GGGAGCTCAGAATAAACGCTCAAGCACGCGTCGTCTTCCTGCGCTTCTCCCCGCATCATTCGACATGAGGCCCGGATC; experiment: magnetic-bead strand release, supernatant absorbance (Nanodrop); conditions: 25 °C, 60 min; 20 μM α-amanitin; capture strand Capture-am-biotin displaced; Langmuir single-point calculation, not fitted
[6] = tested on: Seq78-9 (DNA, aptamer) GGGAGCTCAGAATAAACGCTCAACTTTTCTGGTTACTCTCGTTTGTTTGATGTTACTTTTCGACATGAGGCCCGGATC; experiment: AuNP colorimetric assay (A520); conditions: Na+ (NaCl 40 mM final, added after binding); room temperature, 30 min; 1 μg/mL α-amanitin, aptamer 0-1600 nM; 35 or 78 nt form not stated
[7] = tested on: Seq78-9 (DNA, aptamer) GGGAGCTCAGAATAAACGCTCAACTTTTCTGGTTACTCTCGTTTGTTTGATGTTACTTTTCGACATGAGGCCCGGATC; experiment: magnetic-bead strand release, supernatant absorbance (Nanodrop); conditions: 25 °C, 60 min; 20 μM α-amanitin; capture strand Capture-am-biotin displaced; Langmuir single-point calculation, not fitted
[8] = tested on: Seq78-2 (DNA, aptamer) GGGAGCTCAGAATAAACGCTCAAGCACGCGTCGTCTTCCTGCGCTTCTCCCCGCATCATTCGACATGAGGCCCGGATC; experiment: AuNP colorimetric assay (A520); conditions: Na+ (NaCl 40 mM final, added after binding); room temperature, 30 min; 1 μg/mL α-amanitin, aptamer 0-1600 nM; 35 or 78 nt form not stated

Kd [1]: 256 ± 5 nM
Kd [2]: 216 ± 3 nM
Kd [3]: 57.80 ± 1.001 nM
Kd [4]: 60 ± 3 nM
Kd [5]: 850 ± 45 nM
Kd [6]: 881 ± 6 nM
Kd [7]: 910 ± 31 nM
Kd [8]: 820 ± 5 nM
SMILES: CC[C@H](C)[C@@H]1NC(=O)CNC(=O)[C@@H]2Cc3c([nH]c4cc(O)ccc34)[S@](=O)C[C@H](NC(=O)CNC1=O)C(=O)N[C@@H](CC(N)=O)C(=O)N1C[C@H](O)C[C@H]1C(=O)N[C@@H]([C@@H](C)[C@@H](O)CO)C(=O)N2
